These results are taken from PubChem BioAssay (NCI).

SMILES strings stand for the structures.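 These data come from cells grown in 96-well plates and exposed to compound for 48 hours at five concentrations. GI50 is the concentration that inhibits growth by half. Definition used: TGI = concentration required for complete inhibition of growth.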

Experiment in all cases: NCI tumour cell line growth inhibition, 48 h
Assay [1] deals with CCRF-CEM leukemia.
The subject of assay [2] is HCT-116 colon.
Assay [3] relates to K-562 leukemia.
Assay [4] relates to LOX IMVI melanoma.
The test system of assay [5] is M14 melanoma.
Assay [6] has as its system MALME-3M melanoma.
The subject of assay [7] is OVCAR-3 ovarian.
The test system of assay [8] is RPMI-8226 leukemia.
The subject of assay [9] is T-47D breast.

As for `NC(Cc1ccccc1)(C(=O)O)C(=O)O`, the TGI in [1], in assay [2], in assay [3], in [4], in [5] and in assay [6] was over 100 µM throughout. Also, the TGI in assay [7], in [8] and in assay [9] was over 100 µM each time.
In the case of `CN(CCCNC(=O)c1nn(-c2ccc(Cl)cc2Cl)c2c1ccc1ccccc12)CCCNC(=O)c1nn(-c2ccc(Cl)cc2Cl)c2c1ccc1ccccc12`, the TGI was determined as 5.7 µM in assay [1]; 3.07 µM in assay [2]; 2.83 µM in [3]; 3.2 µM in [4]; 3.04 µM in assay [5]; 3.58 µM in [6]. The TGI amounted to 3.14 µM in assay [7], 4.36 µM in [8] and 3.73 µM in [9].
For `COc1cc2cc(C(=O)N3CC(CCl)c4ccccc43)[nH]c2c(OC)c1OC` (stereo not drawn), the TGI in assay [1] was over 100 µM; in assay [2] it was over 100 µM; in [3] it was over 41.3 µM; in assay [4] it was over 100 µM; in [5] it was over 100 µM; in assay [6] it was over 100 µM. For the same compound, the TGI in assay [7] was over 100 µM; in [8], over 100 µM; in [9] it was over 89.4 µM.
In the case of `Cc1ccc(/C=C/C(=O)c2cc(CN(C)C)c(O)c(CN(C)C)c2)cc1`, the TGI is over 100 µM in assay [1]; 39.7 µM in assay [2]; 43.9 µM in assay [3]; 21.2 µM in assay [4]; 39.1 µM in assay [5]; 35.6 µM in assay [6]. The TGI is 69.5 µM in assay [7], 48.3 µM in assay [8] and over 100 µM in assay [9].
With `CCOC(=O)/C=C1\c2ccccc2C(=O)N1CC(=O)OCC`, the TGI in [1], in [2], in [3], in assay [4], in assay [5] and in assay [6] was over 100 µM throughout. For the same compound, the TGI in assay [7], in [8] and in assay [9] was over 100 µM in each case.
In the case of `CCOC(=O)/C=C(/C(=O)OCC)n1ccc(=O)n(/C(=C/C(=O)OCC)C(=O)OCC)c1=O`, the TGI was 3.53 µM in assay [1]; 6.88 µM in assay [2]; 10.3 µM in assay [3]; 10.5 µM in assay [4]; 10.6 µM in assay [5]; 8.15 µM in [6]. Moreover, the TGI turned out to be 16.9 µM in assay [7], 7.08 µM in assay [8] and 15.9 µM in assay [9].
With `C/C=C/C(=O)N1C(=O)OC[C@@H]1c1ccccc1`, the TGI in assay [1] amounted to 44.8 µM; in [2] it was 38.1 µM; in assay [3], 56 µM; in assay [4] it was 35 µM; in assay [5], 36.6 µM; in [6], 39.7 µM. Also, the TGI in assay [7] came to 33.7 µM; in [8] it was 50 µM; in assay [9], 36.8 µM.
Regarding `C=C1C(=O)O[C@H]2[C@H]1CC(=O)/C(C)=C/CC[C@@]1(C)O[C@@H]21`, the TGI came out at 0.394 µM in assay [1]; 2.51 µM in assay [2]; 1.68 µM in [3]; 1.47 µM in [4]; 1.57 µM in [5]; 3.48 µM in [6]. Further, the values for the TGI in [7], in assay [8] and in assay [9] were 0.6 µM, 1.92 µM and 2.93 µM, respectively. The GI50 in [3] was 0.368 µM; in assay [8], 0.308 µM.
Take `CN1CCC23c4c5ccc(O)c4OC2c2[nH]c4ccccc4c2CC3(O)C1C5` (stereo not drawn): the TGI in [1] is 46.9 µM; in assay [2] it was over 100 µM; in assay [3], 44.4 µM; in assay [4], 54.7 µM; in [5], 34.8 µM; in [6], 36.8 µM. Also, the TGI was over 100 µM in assay [7], 55 µM in assay [8] and 46.9 µM in [9].
Take `O=C(O)c1ccccc1/C=N/NC1=NCCCCN1`: the TGI in [1], in [2], in [3], in assay [4], in [5] and in assay [6] was over 100 µM in each case. Also, the TGI in [7], in assay [8] and in assay [9] was over 100 µM in each case.
`C=C1CN(Cc2ccccc2)[C@@H]2CCCCC[C@H](C#N)[C@H]12`: the TGI in [1], in [2], in assay [3], in [4], in assay [5] and in assay [6] was over 100 µM each time. The TGI was over 100 µM in assay [7], over 80.1 µM in assay [8] and over 100 µM in assay [9].
Consider `COc1cc2c(cc1OCc1ccccc1)NC(=S)[C@@H]1CCCN1C2=S`, for which the TGI in assay [1], in [2], in assay [3], in [4], in assay [5] and in [6] was over 100 µM throughout. The TGI in assay [7], in assay [8] and in assay [9] was over 100 µM each time.
With `C=CC[C@@]1(C)CCCCCCCCC[C@@](C)(CC=C)C1=O`, the TGI in [1] was 42.8 µM; in [2] it was over 100 µM; in assay [3] it was 74.5 µM; in assay [4] it was 33.6 µM; in assay [5], over 100 µM; in assay [6], 58.1 µM. Also, the TGI in [7] was found to be 38.1 µM; in assay [8], 66.7 µM; in [9], 60.9 µM.
`O=C1/C(=C/c2ccc(Cl)cc2)N=C(c2ccccc2)N1c1ccc(S(=O)(=O)Nc2nccs2)cc1`: the TGI in [1] is 87 µM; in [2] it was over 100 µM; in assay [3], over 100 µM; in assay [4], over 100 µM; in [5], over 100 µM; in [6], over 100 µM. In addition, the TGI was over 100 µM in assay [7], 49.5 µM in [8] and 75.2 µM in [9].
As for `Cc1c(C)c2c(c(N)c1C#N)C(=O)N(CCN1CCNCC1)C2=O`, the TGI was over 100 µM in [1]; 52.2 µM in assay [2]; over 100 µM in assay [3]; 47.9 µM in assay [4]; over 100 µM in [5]; 73.1 µM in assay [6]. Besides, the TGI in [7], in assay [8] and in assay [9] was over 100 µM in each case.
On to `COc1ccc(C2SC(C)C(=O)N2c2nc(-c3nc(-c4ccc(Cl)cc4)cs3)cs2)cc1` (stereo not drawn), for which the TGI in assay [1], in assay [2], in assay [3], in assay [4], in assay [5] and in assay [6] was over 100 µM in each case. Further, the TGI in assay [7], in [8] and in assay [9] was over 100 µM throughout.
As to `C=CCNC1=C2C[C@@H](C)C[C@@H](OC)[C@H](OC(=O)CN)[C@H](C)/C=C(\C)[C@@H](OC(N)=O)[C@H](OC)/C=C\C=C(/C)C(=O)NC(=CC1=O)C2=O`, the TGI in assay [1] was over 29.8 µM; in assay [2], 14.4 µM; in [3] it was over 47.4 µM; in assay [4] it was 6.45 µM; in assay [5], 22.3 µM; in assay [6] it was 21.8 µM. Also, the values for the TGI in [7], in [8] and in assay [9] were 7.41 µM, over 52.3 µM and over 25.5 µM, respectively.
In the case of `Cc1ccc(S(=O)(=O)N2CCCC2C(=O)O[C@H]2CC[C@H]3CC=C[C@H]32)cc1` (stereo partly drawn), the TGI in [1] is over 100 µM; in assay [2], over 31.6 µM; in assay [3], 78.9 µM; in assay [4], over 100 µM; in assay [5], over 100 µM; in assay [6], over 100 µM. For the same compound, the TGI in assay [7] is over 100 µM; in assay [8] it was 77.7 µM; in assay [9], over 100 µM.
With `O=C(Nc1ccccc1F)c1cc2ccc(O)cc2oc1=Nc1cccc(C(F)(F)F)c1`, the TGI in assay [1] was 4.79 µM; in [2], 18.1 µM; in assay [3], over 100 µM; in [4], 6.52 µM; in assay [5] it was 26 µM; in assay [6], 34.9 µM. In addition, the TGI in assay [7] is over 100 µM; in assay [8] it was over 100 µM; in assay [9], 15.8 µM.
As to `COc1ccc(/C=C2\N=C(NN)N=C2Cl)cc1`, the TGI in assay [1], in assay [2], in [3], in [4], in [5] and in assay [6] was over 100 µM in each case. The TGI in [7], in assay [8] and in assay [9] was over 100 µM throughout.
Consider `CCCCC(=O)Oc1ccc2c(C)cc(=O)oc2c1`, for which the TGI in [1], in assay [2], in [3], in assay [4], in assay [5] and in assay [6] was over 100 µM in each case. Also, the TGI in assay [7], in assay [8] and in assay [9] was over 100 µM each time.
With `COC(=O)c1ccccc1/C=C1\Cc2cc(C)c(C)cc2C1=O`, the TGI in [1], in assay [2], in assay [3], in [4], in assay [5] and in assay [6] was over 100 µM each time. The TGI in [7], in [8] and in assay [9] was over 100 µM in each case.
As for `O=C1NC(N2CCCC(CO)C2)=N/C1=C\c1ccc(Cl)cc1` (stereo not drawn), the TGI in assay [1], in assay [2], in assay [3], in [4], in assay [5] and in assay [6] was over 100 µM in each case. In addition, the TGI in assay [7], in [8] and in assay [9] was over 100 µM throughout.
Regarding `O=C(c1ccc(Br)cc1)n1c2ccc(Br)cc2c2nc3ccccc3nc21`, the TGI in assay [1], in [2], in assay [3], in [4], in assay [5] and in assay [6] was over 100 µM in each case. Moreover, the TGI in assay [7], in assay [8] and in assay [9] was over 100 µM throughout.
On to `Cc1ccc(/C=C/C(=N/NC(=O)N/N=C(/C=C/c2ccc(C)cc2)C(C)(C)CN2CCCCC2)C(C)(C)CN2CCCCC2)cc1`, for which the TGI in [1] amounted to 3.08 µM; in assay [2], 2.64 µM; in assay [3], 1.68 µM; in [4] it was 2.64 µM; in [5], 1.8 µM; in [6], 3.07 µM. The TGI stood at 3.07 µM in assay [7], 0.897 µM in assay [8] and 4.02 µM in [9].
Regarding `COc1cc(/C=C/c2cc(/C=C/c3ccc(O)c(OC)c3)oc(=O)c2)ccc1O`, the TGI is over 26.1 µM in assay [1]; over 65.8 µM in assay [2]; over 28 µM in assay [3]; 15.7 µM in [4]; over 100 µM in assay [5]; 10.7 µM in [6]. In addition, the TGI in assay [7] was 5.68 µM; in [8], over 20.5 µM; in assay [9], 4.86 µM.
`c1ccc(C[n+]2cccc(-c3cc4ccccc4[nH]3)c2)cc1`: the TGI in [1] is 38.6 µM; in [2], over 100 µM; in assay [3], 77.8 µM; in assay [4] it was 37.9 µM; in assay [5], 55.2 µM; in assay [6], 34.1 µM. The TGI in assay [7] is over 100 µM; in assay [8], 41.2 µM; in assay [9], over 100 µM.
Regarding `S=c1sc2nc(Cl)nc(Cl)c2s1`, the TGI in assay [1] was over 46.6 µM; in assay [2], 26 µM; in [3] it was 28.1 µM; in [4] it was 30.3 µM; in [5] it was 16.9 µM; in assay [6], 23.2 µM. The figures for the TGI in assay [7], in assay [8] and in [9] were 25.2 µM, 9.67 µM and 31.9 µM, respectively.
Consider `O=C(CCN1CCOCC1)Nc1ccc2sc3ccccc3c(=O)c2n1`, for which the TGI is over 100 µM in [1]; over 100 µM in [2]; over 100 µM in [3]; over 100 µM in assay [4]; over 100 µM in [5]; 85.2 µM in assay [6]. For the same compound, the TGI in [7], in assay [8] and in assay [9] was over 100 µM each time.
